test system: HCV replicon; experiment: Replicon based assay of HCV replication inhibition (NPT ELISA); format: cell-based, Hepatitis C virus; details: Hepatitis C virus, Huh-7, 72 h, Table I; Huh-7 HCV replicon-containing cells, three days; read-out: Activity
Outline: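 NPT (neomycin phosphotransferase) content, proportional to replicon replication, quantified by capture ELISA on day four. Before that, replicon-bearing Huh-7 cells in G418-free screening medium were exposed three days at 37° C to compound, typically six doses from 10 to 0.03 micromolar, with equal DMSO across wells.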

Compound | EC50 [nM]
Cc1ccnc(Nc2nc(-c3c(C)nc4sccn34)cs2)c1 [compound 170, 4-methyl-N-(4-(6-methylimidazo[2,1-b]thiazol-5-yl)thiazol-2-yl)pyridin-2-amine] | > 10000
CCCCCOc1ccc(Nc2csc(-c3cccnc3)n2)cc1C(F)(F)F [compound 13, N-(3-(trifluoromethyl)-4-(pentyloxy)phenyl)-2-(pyridin-3-yl)thiazol-4-amine] | > 10000
CCCCCOc1ccc(Nc2nc(-c3ccc(C(=O)O)cn3)cs2)cc1C(F)(F)F [compound 213, 6-(2-(3-(trifluoromethyl)-4-(pentyloxy)phenylamino)thiazol-4-yl)pyridine-3-carboxylic acid] | < 1000
CCCCCOc1ccc(Nc2ncc(Br)s2)cc1C(F)(F)F [compound 9, 5-bromo-N-(3-(trifluoromethyl)-4-(pentyloxy)phenyl)thiazol-2-amine] | < 1000
CCCCCOc1ccc(Nc2nc(-c3ccc(C(=O)N4CCNC(=O)C4)nc3)cs2)cc1C(F)(F)F [compound 222] | < 1000
c1cncc(-c2csc(Nc3ccc(N4CCOCC4)cc3)n2)c1 [compound 99, N-(4-morpholinophenyl)-4-(pyridin-3-yl)thiazol-2-amine] | > 10000
CC(C)(C)c1ccc(NC(=O)c2nc(-c3cccnc3)cs2)cc1 [compound 111, N-(4-tert-butylphenyl)-4-(pyridin-3-yl)thiazole-2-carboxamide] | > 10000
O=C(Nc1ccc(Oc2ccc(Cl)cc2)cc1)c1nc(-c2cccnc2)cs1 [compound 115, N-(4-(4-chlorophenoxy)phenyl)-4-(pyridin-3-yl)thiazole-2-carboxamide] | > 10000
CCCCCOc1ccc(Nc2nc(-c3ccc(F)c(F)c3)cs2)cc1C(F)(F)F [compound 133, N-(3-(trifluoromethyl)-4-(pentyloxy)phenyl)-4-(3,4-difluorophenyl)thiazol-2-amine] | < 1000
CCCCCOc1ccc(Nc2nc(C(Cc3ccccc3)NS(=O)(=O)c3ccc(C)cc3)cs2)cc1C(F)(F)F (stereo not shown) [compound 6, N-(3-(trifluoromethyl)-4-(pentyloxy)phenyl)-4-(2-phenyl-1-(tosylamino)ethyl)thiazol-2-amine] | 1000 to 10000

same assay, conditions: Hepatitis C virus, Huh-7, 72 h, Table III; Huh-7 HCV replicon-containing cells, three days; read-out: Activity

Compound | EC50 [nM]
CCCCCCCc1ccc(Nc2nc(-c3ccc(Cl)s3)cs2)cc1 [compound 558, 4-(5-chlorothiophen-2-yl)-N-(4-heptylphenyl)thiazol-2-amine] | < 1000
CCCCCCCCOc1ccc(Nc2nc(-c3cnc4ccc(C#N)cn34)cs2)cc1C(F)(F)F [compound 674, 3-(2-(3-(trifluoromethyl)-4-(octyloxy)phenylamino)thiazol-4-yl)H-imidazo[1,2-a]pyridine-6-carbonitrile] | < 1000
CCCCCCCCOc1ccc(Nc2nc(Cc3ccc(F)cc3)cs2)cc1 [compound 628, 4-(4-fluorobenzyl)-N-(4-(octyloxy)phenyl)thiazol-2-amine] | 1000 to 10000
CCCCCCCCOc1ccc(Nc2nc(-c3ccc(-c4csnn4)cc3)cs2)cc1C(F)(F)F [compound 668, 4-(4-(1,2,3-thiadiazol-4-yl)phenyl)-N-(3-(trifluoromethyl)-4-(octyloxy)phenyl)thiazol-2-amine] | < 1000
CCCCCCCCOc1ccc(Nc2nc(-c3ccc4[nH]c(=O)oc4c3)cs2)cc1C(F)(F)F [compound 585, 6-(2-(3-(trifluoromethyl)-4-(octyloxy)phenylamino)thiazol-4-yl)benzo[d]oxazol-2(3H)-one] | < 1000
CCCCCCCCOc1ccc(Nc2nc(-c3ccc4cc(OC)ccc4c3)cs2)cc1C(F)(F)F [compound 707, N-(3-(trifluoromethyl)-4-(octyloxy)phenyl)-4-(2-methoxynaphthalen-6-yl)thiazol-2-amine] | < 1000
CCCCCCCCOC(=O)c1ccc(Nc2nc(-c3cccnc3)cs2)cc1C(F)(F)F [compound 697, octyl 4-(4-(pyridin-3-yl)thiazol-2-ylamino)-2-(trifluoromethyl)benzoate] | < 1000
CCCCCCCCOc1ccc(Nc2nc(-c3cnc(NC(C)=O)c(C)c3)cs2)cc1C(F)(F)F [compound 686, N-(5-(2-(3-(trifluoromethyl)-4-(octyloxy)phenylamino)thiazol-4-yl)-3-methylpyridin-2-yl)acetamide] | < 1000
CCCCCCCCOc1ccc(Nc2nc(-c3ccsc3C#N)cs2)cc1C(F)(F)F [compound 671, 3-(2-(3-(trifluoromethyl)-4-(octyloxy)phenylamino)thiazol-4-yl)thiophene-2-carbonitrile] | < 1000
CCCCCCCCc1ccc(Nc2nc(-c3sc(-c4cnccn4)nc3C)cs2)cc1 [compound 554, 4-(4-methyl-2-(pyrazin-2-yl)thiazol-5-yl)-N-(4-octylphenyl)thiazol-2-amine] | < 1000
FC(F)(F)c1cc(Nc2nc(-c3cccnc3)cs2)ccc1N1CCC2CCCCC2C1 (stereo not shown) [compound 698, N-(3-(trifluoromethyl)-4-(octahydroisoquinolin-2(1H)-yl)phenyl)-4-(pyridin-3-yl)thiazol-2-amine] | < 1000
CCCCCOc1ccc(Nc2nc(-c3ccc4c(c3)OCO4)cs2)cc1C(F)(F)F [compound 534, 4-(benzo[d][1,3]dioxol-6-yl)-N-(3-(trifluoromethyl)-4-(pentyloxy)phenyl)thiazol-2-amine] | < 1000

same assay, conditions: Hepatitis C virus, replicon based assay of HCV replication inhibition; Table II; read-out: Activity

Compound | EC50 [nM]
Cc1ccc(-c2csc(Nc3ccc(OC4CCCC4)c(C(F)(F)F)c3)n2)cn1 [compound 453, N-(4-(cyclopentyloxy)-3-(trifluoromethyl)phenyl)-4-(6-methylpyridin-3-yl)thiazol-2-amine] | < 1000
CCCCCCCCOc1ccc(Nc2nc(Cc3cccc(F)c3)cs2)cn1 [compound 498, N-(4-(3-fluorobenzyl)thiazol-2-yl)-6-(octyloxy)pyridin-3-amine] | 1000 to 10000
COc1ccc(Cl)cc1Nc1nc(-c2cccnc2)cs1 [compound 428, N-(5-chloro-2-methoxyphenyl)-4-(pyridin-3-yl)thiazol-2-amine] | 1000 to 10000
CCCCCCCOc1ccc(Nc2nc(-c3ccc(C(=O)N(C)C)nc3)cs2)cc1 [compound 457, 5-(2-(4-(heptyloxy)phenylamino)thia-zol-4-yl)-N,N-dimethylpyridine-2-carboxamide] | 1000 to 10000
CCCCCCCCOc1ccc(Nc2nc(-c3ccc(OCC(=O)OCC)cc3)cs2)cc1 [compound 461, ethyl 2-(4-(2-(4-(octyloxy)phenylamino)thia-zol-4-yl)phenoxy)acetate] | < 1000
CCCCCOc1ccc(Nc2nc(-c3ccccc3O)cs2)cc1C(F)(F)F [compound 371, 2-(2-(4-(pentyloxy)-3-(trifluoromeethyl)phenyl-amino)thiazol-4-yl)phenol] | 1000 to 10000
CCCCCOc1ccc(Nc2nc(-c3ccc(C#N)nc3)cs2)cc1C(F)(F)F [compound 510, 5-(2-(3-(trifluoromethyl)-4-(pentyloxy)phenylamino)thia-zol-4-yl)pyridin-2-carbonitrile] | < 1000
CCCCCOc1ccc(Nc2nc(CN3CCC(N(C)C(=O)OC(C)(C)C)C3)cs2)cc1C(F)(F)F (stereo not shown) [compound 266, tert-butyl methyl(1-((2-(4-(pentyloxy)-3-(trifluoromethyl)phenyl-amino)thiazol-4-yl)methyl)pyrrolidin-3-yl)carbamate] | < 1000
CCCCCCCCOc1ccc(Nc2nc(CN3CCC(N(C)C(=O)OC(C)(C)C)C3)cs2)cc1 (stereo not shown) [compound 309, tert-butyl methyl(1-((2-(4-(octyloxy)phenylamino)thia-zol-4-yl)methyl)pyrrolidin-3-yl)carbamate] | 1000 to 10000

same assay, conditions: Hepatitis C virus, replicon based assay of HCV replication inhibition; Table IV; read-out: Activity

Compound | EC50 [nM]
CCCCCCCCOc1ccc(Nc2nc(-c3cccnc3)c(Cl)s2)cc1C(F)(F)F [compound 918, 5-chloro-N-(3-(trifluoromethyl)-4-(octyloxy)phenyl)-4-(pyridin-3-yl)thiazol-2-amine] | < 1000
COc1ccc(Nc2nc(-c3cccnc3)cs2)cc1OC1CCCC1 [compound 741, N-(3-(cyclopentyloxy)-4-methoxyphenyl)-4-(pyridin-3-yl)thiazol-2-amine] | 1000 to 10000
CCCCCCCCc1ccc(Nc2nc(-c3cnc(OC)nc3)cs2)cc1C(F)(F)F [compound 826, N-(3-(trifluoromethyl)-4-octylphenyl)-4-(2-methoxypyrimidin-5-yl)thiazol-2-amine] | < 1000
Cc1sc(Nc2ccc(OCCCCc3ccccc3)c(C(F)(F)F)c2)nc1-c1cccnc1 [compound 838, N-(4-(4-phenylbutoxy)-3-(trifluoromethyl)phenyl)-5-methyl-4-(pyridin-3-yl)thiazol-2-amine] | < 1000
CCCCCCCCOc1ccc(Nc2nc(C(=O)CSc3ncc[nH]3)cs2)cc1C(F)(F)F [compound 785, 2-(1H-imidazol-2-ylthio)-1-(2-(3-(trifluoromethyl)-4-(octyloxy)phenylamino)thiazol-4-yl)ethanone] | 1000 to 10000
Cc1cc(C)cc(Nc2nc(-c3cccnc3)cs2)c1 [compound 906, N-(3,5-dimethylphenyl)-4-(pyridin-3-yl)thiazol-2-amine] | 1000 to 10000
O=C1CSc2cc(-c3csc(Nc4ccc(OCC5CCCCC5)c(F)c4)n3)ccc2N1 [compound 727, 7-(2-(4-(cyclohexylmethoxy)-3-fluorophenylamino)thiazol-4-yl)-2H-benzo[b][1,4]thiazin-3(4H)-one] | 1000 to 10000
CCCCCCCCOc1ccc(Nc2nc(-c3ccc(O)cc3O)cs2)cc1C(F)(F)F [compound 782, 4-(2-(3-(trifluoromethyl)-4-(octyloxy)phenylamino)thiazol-4-yl)benzene-1,3-diol] | < 1000
COc1ncc(-c2csc(Nc3ccc(C(=O)N4CCC5CCCCC5C4)c(C(F)(F)F)c3)n2)cn1 (stereo not shown) [compound 778, (4-(4-(2-methoxypyrimidin-5-yl)thiazol-2-ylamino)-2-(trifluoromethyl)phenyl) (octahydroisoquinolin-2(1H)-yl)methanone] | 1000 to 10000
